Measured values: paper PMC8160934, “Different Biological Activities of Histidine-Rich Peptides Are Favored by Variations in Their Design” (Toxins, 2021)
Values after ≈ are worked out from the molar mass of the structure shown. Values joined by “and” are separate entries in the source; they are usually repeats but may differ in a detail not shown here. Identical values can stand only once. Where a SMILES comes first, the peptide text is derived from it.

How the values were obtained:
[1] = system: E. coli bacteria (ATCC 25922); assay: Broth microdilution antibacterial assay (MIC) in Mueller–Hinton broth, pH 5; assay type: cell-based; settings: for MIC: E. coli ATCC 25922, broth microdilution, Mueller–Hinton broth pH 5, 37 °C, 12 h, OD600, concentration at which bacterial growth reaches a minimum (at least 80% inhibited), average of two experiments, each in triplicate; for MIC50: E. coli, Mueller–Hinton broth pH 5, x50 from Origin fits of the growth curves of Figure 3 (concentration range 100 µM to 0.52 µM), fit error given, * error estimated in the range of the 1.5-fold dilution steps
Method: Therefore, the antibacterial properties of both series of peptides were analyzed in Mueller–Hinton (MH) broth at pH 5 by determining the minimal inhibitory concentrations (MICs).
Figure 3 Bacterial growth as a function of peptide concentration for the LAH4-Ln (A) and the LAH4-An series (B). The average of two experimental data sets (each data point derived from triplicates under the same experiment conditions) covering the concentration range 100 µM to 0.52 µM are shown by the relative bacterial growth when compared to bacteria in the absence of peptide (=100%). To guide the eye, the data have been fitted with the function ymin + (ymax − ymin)/(1 + (x/xo)^p)^s using the OriginPro software. […] The assay was performed in Mueller–Hinton broth, pH 5.
A broth microdilution assay was used to determine the minimal inhibitory concentration (MIC). A peptide aliquot of 1 mg was first solubilized in 50% ethanol (10 mM) then diluted in H2O to get a 300 μM peptide stock solution.
For all the activity tests, E. coli bacteria (ATCC® 25922^TM, Thermo Fisher Scientific, Courtaboeuf, France) were used. Briefly, some colonies from E. coli spread on gelose were resuspended in Mueller–Hinton broth, pH 7.4. After incubation at 37 °C for about 6 h this preculture was diluted to OD550nm = 0.2 in MH at pH5 and allowed to grow to reach the exponential phase (OD550nm = 1–2). After two-step dilution in MH pH5, the working bacteria suspension corresponding to 1.10^5–2.10^5 colony-forming units (CFU)/mL was obtained.
The antimicrobial testing was carried out in 96-well microplates (sterile polystyrene untreated with F-bottom, Thermo Scientific Nunc A/S, Roskilde, Denmark). The first column of the plate contains the highest final concentration (Cf) of peptide to test (two experiments were done: the first one starting at Cf 100 μM and a second one starting at 30 μM). All samples were added to the first column of the plate and subsequently spread onto the plate by a 1.5-fold dilution series in 10 steps. The last columns correspond to the positive and negative control conditions, respectively. Finally, the bacterial working suspension was distributed (50 μL at 1.10^5–2.10^5 CFU/mL in MH1X at pH 5) to each well except for the negative control (MH1X at pH5). The final volume was 100 μL/well and the range of peptide concentrations tested was from 100 μM to 1.73 μM for the first experiment and from 30 μM to 0.52 μM for the second experiment. The microplates were incubated at 37 °C for 12 h before bacterial growth was assessed by measuring the OD600. The initial bacterial density for each experiment was checked by spreading 100 μL of the working bacterial suspension, diluted 1/100 and 1/500 in MH1X, pH 5 on MH agar plates. After overnight incubation at 37 °C, the CFU were counted and the CFU/mL were determined. The percentage of bacterial growth compared to the positive control allows one to determine the MIC. The MIC values represent the average of the lowest tested peptide concentration (from both experiments) where most (at least 80%) of the bacterial growth is inhibited.

[2] = system: HCT116 cells; assay: Luciferase protein transduction; assay type: cell-based, human; settings: HCT116, 2 µg recombinant luciferase with 10-32 µg peptide, 3 h in serum-free medium, mean of duplicates; result in words
Method: To perform a rapid screening of the protein transduction activities of the two series of peptides, we selected to deliver the luciferase protein from Photinus pyralis, which has a molecular weight (MW) of 62 kDa and an isoelectric point (pI) of 6.3. Indeed, the measurement of the activity of this enzyme is fast and very sensitive. […] Increasing amounts of peptides were added to a fixed amount of luciferase, and after 3 h of incubation with the human colon cancer cells HCT116, enzymatic activity was measured.
Figure 1 Transduction of the luciferase protein. HCT116 cells in 48-well plates were treated with 2 µg of recombinant luciferase (Rec. Luc) (per duplicate) in the presence or absence of LAH4 peptides (LAH4-Ln series in (A) and LAH4-An series in (B)). After 3 h of incubation in serum-free medium, cells were washed once with 1 mL/well of phosphate buffer saline (PBS), lysed, and the luciferase activity was determined. […] For each peptide, four conditions were tested: 10, 16, 24 and 32 µg of peptide/2 µg recombinant luciferase, except for LAH4 (16, 24 and 32 µg). Non-complexed recombinant luciferase was used as the control (black bar). The hydrophilic angles are shown in italics. […] It is uncertain whether it counts as a property result. The luciferase activities are shown only as bars, with no printed numbers, and are left out.
Protein complexes were generated using increasing peptide/protein w/w ratios.
Then, 0.25 mL of serum-free medium containing the peptide/protein complexes was transferred into each well. After an incubation time of 3 h at 37 °C the medium was removed, cells were washed once with 1 mL/well of PBS, and then 100 μL of lysis buffer was added per well. Luciferase activity and protein content were measured as described above.

[3] = system: U87 cells; assay: DNA transfection with p-Luc plasmid, luciferase expression; settings: 1.5 µg pDNA with 7.5-25 µg peptide, 2 h 30 min, read one day post-transfection, mean of duplicates, result in words
Method: In vitro cell transfection experiments were performed using the plasmid p-Luc (7.6 kb), which is an expression plasmid encoding the firefly luciferase gene under the control of the human cytomegalovirus (CMV) immediate–early promoter. In total, 55,000 U87 cells were plated in 48-well plates one day before the experiment was performed. For transfection, 0.25 mL of serum-free culture medium containing the DNA complexes was deposited into each well of the duplicate. After incubation for approximately 2 h 30 min at 37 °C the medium was replaced with a fresh one containing serum. Luciferase activity was measured as described below in the cell lysate one day after transfection.
Transfection complexes were prepared as follows: for a duplicate, 1.5 μg of plasmid DNA and the desired amount of peptide were each diluted into 25 μL of acetate buffer pH 5 and gently mixed. DNA complexes were generated using increasing peptide/DNA w/w ratios. After 20 min of incubation at room temperature, the mixture was diluted with culture medium to obtain a final volume of 0.5 mL.
For luciferase activity, cells were harvested in 100 μL of lysis buffer (8 mM MgCl2, 1 mM DTT, 1 mM EDTA, 0.6% Triton X-100, 15% glycerol, and 25 mM Tris-phosphate buffer pH 7.8). The cell lysate was then transferred into Eppendorf tubes and centrifuged for 7 min at 10,000× g to pellet debris. Luciferase light units were measured in a 96-well plate format with a Centro LB luminometer (Berthold) from an aliquot of the supernatant (2 μL) with 1 s integration after automatic injection of 50 μL assay buffer (lysis buffer without Triton X-100 but supplemented with 2 mM ATP) and 50 μL of a luciferin solution (167 μM in water). Luciferase background was subtracted from each value and the protein content of the transfected cells was measured by Bradford dye-binding using the BioRad protein assay (Bio-Rad). The transfection efficiency was expressed as light units/s/mg protein (light units measured over a period of 1 s, and the values were then normalized after measurement of the amount of protein present in each well). The reported values are the mean of duplicates. Error bars represent the standard deviation of the mean.
glioblastoma U87 cells. Increasing amounts of peptide were mixed with a constant amount of reporter
plasmid (1.5 µg per duplicate of pDNA) and the complexes were incubated for 2h 30min with the
cells plated in 48-well plates. The transfection medium was then removed and replaced with fresh
culture medium supplemented with 10% serum. Luciferase activity was measured one day post-
transfection. The transfection efficiency is expressed as light units/s/mg protein and the reported
values are the mean of duplicates. Error bars represent the standard deviation of the mean.

## CC(C)C[C@H](NC(=O)[C@H](C)NC(=O)[C@H](C)NC(=O)[C@H](CC(C)C)NC(=O)[C@H](CC(C)C)NC(=O)[C@H](Cc1c[nH]cn1)NC(=O)[C@H](CC(C)C)NC(=O)[C@H](C)NC(=O)[C@H](Cc1c[nH]cn1)NC(=O)[C@H](C)NC(=O)[C@H](CC(C)C)NC(=O)[C@H](CC(C)C)NC(=O)[C@H](C)NC(=O)[C@H](CCCCN)NC(=O)[C@@H](N)CCCCN)C(=O)N[C@@H](C)C(=O)N[C@@H](CC(C)C)C(=O)N[C@@H](Cc1c[nH]cn1)C(=O)N[C@@H](CC(C)C)C(=O)N[C@@H](C)C(=O)N[C@@H](Cc1c[nH]cn1)C(=O)N[C@@H](CC(C)C)C(=O)N[C@@H](CC(C)C)C(=O)N[C@@H](CCCCN)C(=O)N[C@@H](CCCCN)C(=O)N[C@@H](C)C(N)=O [LAH4-A1] (H-KKALLAHALHLLAALALHLAHLLKKA-NH2)
[1]
  MIC: 25 µM (≈ 69.5 µg/mL)
  MIC50: 13.9 µM (≈ 38.6 µg/mL)
[2]
  luciferase protein transduction efficiency (luciferase activity, light units/s/mg protein): among the least efficient
[3]
  DNA transfection activity (luciferase activity): highest activity

## CC(C)C[C@H](NC(=O)[C@H](C)NC(=O)[C@H](C)NC(=O)[C@H](Cc1c[nH]cn1)NC(=O)[C@H](CC(C)C)NC(=O)[C@H](CC(C)C)NC(=O)[C@H](C)NC(=O)[C@H](CC(C)C)NC(=O)[C@H](Cc1c[nH]cn1)NC(=O)[C@H](CC(C)C)NC(=O)[C@H](CC(C)C)NC(=O)[C@H](C)NC(=O)[C@H](CCCCN)NC(=O)[C@@H](N)CCCCN)C(=O)N[C@@H](CC(C)C)C(=O)N[C@@H](C)C(=O)N[C@@H](Cc1c[nH]cn1)C(=O)N[C@@H](CC(C)C)C(=O)N[C@@H](C)C(=O)N[C@@H](C)C(=O)N[C@@H](CC(C)C)C(=O)N[C@@H](Cc1c[nH]cn1)C(=O)N[C@@H](CC(C)C)C(=O)N[C@@H](CCCCN)C(=O)N[C@@H](CCCCN)C(=O)N[C@@H](C)C(N)=O [LAH4-L5] (H-KKALLHLALLHAALLAHLAALHLKKA-NH2)
[1]
  MIC: below 2 µM
  MIC50: 1.2 µM (≈ 3.33 µg/mL)
[2]
  luciferase protein transduction efficiency (luciferase activity, light units/s/mg protein): the most efficient peptides

## CC(C)C[C@H](NC(=O)[C@H](C)NC(=O)[C@H](C)NC(=O)[C@H](CC(C)C)NC(=O)[C@H](CC(C)C)NC(=O)[C@H](CC(C)C)NC(=O)[C@H](C)NC(=O)[C@H](CC(C)C)NC(=O)[C@H](Cc1c[nH]cn1)NC(=O)[C@H](CC(C)C)NC(=O)[C@H](CC(C)C)NC(=O)[C@H](C)NC(=O)[C@H](CCCCN)NC(=O)[C@@H](N)CCCCN)C(=O)N[C@@H](Cc1c[nH]cn1)C(=O)N[C@@H](C)C(=O)N[C@@H](Cc1c[nH]cn1)C(=O)N[C@@H](CC(C)C)C(=O)N[C@@H](C)C(=O)N[C@@H](C)C(=O)N[C@@H](CC(C)C)C(=O)N[C@@H](Cc1c[nH]cn1)C(=O)N[C@@H](CC(C)C)C(=O)N[C@@H](CCCCN)C(=O)N[C@@H](CCCCN)C(=O)N[C@@H](C)C(N)=O [LAH4-L6] (H-KKALLHLALLLAALHAHLAALHLKKA-NH2)
[1]
  MIC: below 2 µM
  MIC50: 0.9 µM (≈ 2.5 µg/mL)

## CC(C)C[C@H](NC(=O)[C@H](C)NC(=O)[C@H](Cc1c[nH]cn1)NC(=O)[C@H](C)NC(=O)[C@H](CC(C)C)NC(=O)[C@H](CC(C)C)NC(=O)[C@H](C)NC(=O)[C@H](CCCCN)NC(=O)[C@@H](N)CCCCN)C(=O)N[C@@H](C)C(=O)N[C@@H](Cc1c[nH]cn1)C(=O)N[C@@H](CC(C)C)C(=O)N[C@@H](C)C(=O)N[C@@H](CC(C)C)C(=O)N[C@@H](CC(C)C)C(=O)N[C@@H](C)C(=O)N[C@@H](CC(C)C)C(=O)N[C@@H](Cc1c[nH]cn1)C(=O)N[C@@H](CC(C)C)C(=O)N[C@@H](C)C(=O)N[C@@H](CC(C)C)C(=O)N[C@@H](Cc1c[nH]cn1)C(=O)N[C@@H](CC(C)C)C(=O)N[C@@H](CCCCN)C(=O)N[C@@H](CCCCN)C(=O)N[C@@H](C)C(N)=O [LAH4-L0] (H-KKALLAHALAHLALLALHLALHLKKA-NH2)
[1]
  MIC: 6 µM (≈ 16.7 µg/mL)
  MIC50: 3.1 µM (≈ 8.61 µg/mL)

## CC(C)C[C@H](NC(=O)[C@H](C)NC(=O)[C@H](CCCCN)NC(=O)[C@@H](N)CCCCN)C(=O)N[C@@H](CC(C)C)C(=O)N[C@@H](C)C(=O)N[C@@H](Cc1c[nH]cn1)C(=O)N[C@@H](C)C(=O)N[C@@H](CC(C)C)C(=O)N[C@@H](Cc1c[nH]cn1)C(=O)N[C@@H](CC(C)C)C(=O)N[C@@H](CC(C)C)C(=O)N[C@@H](C)C(=O)N[C@@H](CC(C)C)C(=O)N[C@@H](CC(C)C)C(=O)N[C@@H](C)C(=O)N[C@@H](CC(C)C)C(=O)N[C@@H](Cc1c[nH]cn1)C(=O)N[C@@H](CC(C)C)C(=O)N[C@@H](C)C(=O)N[C@@H](Cc1c[nH]cn1)C(=O)N[C@@H](C)C(=O)N[C@@H](CC(C)C)C(=O)N[C@@H](CCCCN)C(=O)N[C@@H](CCCCN)C(=O)N[C@@H](C)C(N)=O [LAH4-L1] (H-KKALLAHALHLLALLALHLAHALKKA-NH2)
[1]
  MIC: 20 µM and 17 µM
  MIC50: 8.6 µM (≈ 23.9 µg/mL)
[2]
  luciferase protein transduction efficiency (luciferase activity, light units/s/mg protein): among the least efficient
[3]
  DNA transfection activity (luciferase activity): highest activity

## H-KKALLHALLAALLAHLHALLAHLKKA-NH2 [LAH4-A6, isomer of LAH4, LAH4-An series]
[1]
  MIC50: 2.9 µM
[3]
  DNA transfection activity (luciferase activity): high levels of activity

## CC(C)C[C@H](NC(=O)[C@H](C)NC(=O)[C@H](CC(C)C)NC(=O)[C@H](Cc1c[nH]cn1)NC(=O)[C@H](Cc1c[nH]cn1)NC(=O)[C@H](C)NC(=O)[C@H](CC(C)C)NC(=O)[C@H](CC(C)C)NC(=O)[C@H](C)NC(=O)[C@H](C)NC(=O)[C@H](Cc1c[nH]cn1)NC(=O)[C@H](CC(C)C)NC(=O)[C@H](CC(C)C)NC(=O)[C@H](C)NC(=O)[C@H](CC(C)C)NC(=O)[C@H](Cc1c[nH]cn1)NC(=O)[C@H](CC(C)C)NC(=O)[C@H](CC(C)C)NC(=O)[C@H](C)NC(=O)[C@H](CCCCN)NC(=O)[C@@H](N)CCCCN)C(=O)N[C@@H](C)C(=O)N[C@@H](CC(C)C)C(=O)N[C@@H](CCCCN)C(=O)N[C@@H](CCCCN)C(=O)N[C@@H](C)C(N)=O [LAH4-L4] (H-KKALLHLALLHAALLAHHLALALKKA-NH2)
[1]
  MIC50: 0.8 µM (≈ 2.22 µg/mL)

## H-KKALLLAALHHLAALALHLAHLLKKA-NH2 [LAH4-A2, isomer of LAH4, LAH4-An series]
[1]
  MIC50: 5 µM
[2]
  luciferase protein transduction efficiency (luciferase activity, light units/s/mg protein): the most efficient peptides

## H-KKALLALALHHLALLALHLAHALKKA-NH2 [LAH4-L2, isomer of LAH4, LAH4-Ln series]
[1]
  MIC50: 4.7 µM
[2]
  luciferase protein transduction efficiency (luciferase activity, light units/s/mg protein): the most efficient peptides

## H-KKALLALALHHLALLAHHLALALKKA-NH2 [LAH4-L3, isomer of LAH4, LAH4-Ln series]
[1]
  MIC50: 1.4 µM

## H-KKALLLAALHHLLALAHHLAALLKKA-NH2 [LAH4-A3, isomer of LAH4, LAH4-An series]
[1]
  MIC50: 7.5 µM
